Test results published in patent publication US20170252469A9, “Method for predicting autism spectrum disorders by cannabinoid and cannabinoid receptor expression” (The United of America as represented by the Secretary of …, priority 2011, published 2017).
“Also recorded” adds a separate entry of the source.

Tests used:
BTBR mice [1] = test: three-chamber social approach test in BTBR mice; type: in vivo, mouse
Description: (§1) BTBR T+tf/J, 129S1/SvImJ and C57BL/6 mouse colony founders were originally obtained from the Jackson Laboratory (Bar Harbor, Me., USA). These strains were bred in the animal facilities of the University of Texas Health Science Center at San Antonio through 2 generations. After weaning at 23-25 days of age, male littermates were housed in groups of 4-5 per cage until behavioral testing at 3-4 months of age. Mice had ad libitum access to food (Teklad™ rodent diet, Harlan, Indianapolis, Ind., USA) and water in ventilated clear plastic cages lined with chipped wood bedding.
(§2) The cannabinoid agonist WIN55,212-2 (Ascent Scientific, Princeton, N.J., USA) was dissolved initially in dimethyl-sulfoxide (DMSO Sigma) and was diluted with saline (1:10) to administer 0.1 mg/kg i.p. in 10% DMSO to mice. […] Injections were given 30 minutes prior to introduction to the testing arena for conditioning, and 50 min prior to behavior testing.
The three-chamber sociability testing procedure for mice is described in detail in Yang et al. Curr. Protoc. Neurosci., Chapter 8: Unit 8. 26 (2011), our study was conducted in a manner consistent with that protocol. Mice were introduced into the center chamber of an acrylic three-chamber sociability arena, measuring 30×22×61 cm with a light tan bottom, black side walls and two transparent interior walls with slat door openings of 10 cm^2 […] dividing the arena into 3 chambers, for 20 min prior to behavioral testing. As described in Gould et al. J. Neurochem., 116: 291-303 (2011), pre-conditioning was performed under low red light (16 lux) at first for 10 min with the mouse confined in the center chamber, then with the doors opened so the subject could explore the entire arena for 10 min longer. Just prior to testing, subjects were briefly confined in the center chamber while an empty wire cup cage was placed at one end of the arena, and a stranger mouse of the same strain was placed under an identical cup cage at the opposite end. Stranger mice were neither litter- nor cage-mates of the subjects and were housed in a separate ventilated cage rack. Stranger mice were pre-conditioned under cup cages in 3 sessions of 30 min each in the day(s) prior to testing, separated by 1 hour reprises in their home cages. Cup cages were topped with weighted jars (9 cm high×7 cm diameter) to prevent mice from climbing on top of them. Digital video cameras (Hewlett-Packard Photosmart™ R742, Palo Alto, Calif., USA) positioned on top of tripods overseeing the arenas were turned on, the doors were removed and social approach behavior was recorded for 10 min under low red light.

BTBR mice [2] = test: three-chamber social novelty test in BTBR mice; type: in vivo, mouse; conditions: WIN 55,212-2 0.1 mg/kg i.p.; for time in the chamber with the novel stranger / chamber entries: acetaminophen 100 mg/kg; for time in the chamber with the novel stranger: vs controls; for chamber entries: social novelty test, BTBR
Description: as §2
(§3) The social approach test ended with confinement of the subject into the center chamber and closing of the slat doors. A new stranger mouse was then placed under the empty cup cage, the doors were opened, and behavior was recorded for another 10 min under low red light to assess preference for social novelty. At the end of the test, stranger mice were returned to their home cages for use in subsequent tests, and subject mice were removed from the arena and placed in a marble burying test. The number of boli in the center of the arena was counted prior to cleaning the arena with a solution of 70% EtOH and paper towels prior to conditioning and testing the next animal. Digital videos were analyzed for box entries, time in box and social sniffing time by observers blind to mouse strain or drug treatments.

BTBR mice [3] = test: marble burying test in BTBR mice, acute treatment; type: in vivo, mouse; conditions: 30 min, FIG. 2d
Description: as §2

129S1/SvImJ mice [4] = test: three-chamber social approach test in 129S1/SvImJ mice; type: in vivo, mouse; conditions: 129S
Description: as §1, §2
The three-chamber sociability testing procedure for mice is described in detail in Yang et al. Curr. Protoc. Neurosci., Chapter 8: Unit 8. 26 (2011), our study was conducted in a manner consistent with that protocol. Mice were introduced into the center chamber of an acrylic three-chamber sociability arena, measuring 30×22×61 cm with a light tan bottom, black side walls and two transparent interior walls with slat door openings of 10 cm^2 […] dividing the arena into 3 chambers, for 20 min prior to behavioral testing. As described in Gould et al. J. Neurochem., 116: 291-303 (2011), pre-conditioning was performed under low red light (16 lux) at first for 10 min with the mouse confined in the center chamber, then with the doors opened so the subject could explore the entire arena for 10 min longer. […] Digital video cameras (Hewlett-Packard Photosmart™ R742, Palo Alto, Calif., USA) positioned on top of tripods overseeing the arenas were turned on, the doors were removed and social approach behavior was recorded for 10 min under low red light.

129S1/SvImJ mice [5] = test: three-chamber social novelty test in 129S1/SvImJ mice; type: in vivo, mouse; conditions: 129S, FIG. 3c; for time in the arena chamber with a new stranger mouse: acetaminophen 100 mg/kg i.p.
Description: as §2, §3

5-HT neurons = conditions: literature; cited from earlier work
129S1/SvImJ mice [6] = test: marble burying test in 129S1/SvImJ mice, acute treatment; type: in vivo, mouse; conditions: 129S, acetaminophen 100 mg/kg i.p., FIG. 3d
Description: as §2

BTBR and C57BL/6 mice = test: marble burying after injections in early postnatal development; type: in vivo, mouse; conditions: 100 mg/kg i.p. injections from 18-21 days postnatal, 59 days, FIG. 5
Description: (§4) The mice were then tested for marble burying and evaluated for neurochemical measures.

BTBR mice [7] = test: 2-AG levels after injections in early postnatal development; type: in vivo, mouse; conditions: 100 mg/kg i.p. injections from 18-21 days postnatal, 59 days, FIG. 6
Description: as §4

mice = conditions: administration of anandamide or high doses of acetaminophen; Umathe et al. 2009; cited from earlier work
5-HT receptors = conditions: literature; cited from earlier work

Cc1c(C(=O)c2cccc3ccccc23)c2cccc3c2n1[C@H](CN1CCOCC1)CO3 [WIN 55,212-2]
time in the arena center (BTBR mice [1]; WIN 55,212-2 0.1 mg/kg i.p., social approach, FIG. 2a): increased lingering in the arena center
time in the arena center (BTBR mice [2]; social novelty, FIG. 2c): reduced dwelling in the arena center; also recorded: spent less time than the other groups in the arena center
time in the chamber with the novel stranger (BTBR mice [2]; FIG. 2c): reduced time spent in the chamber of the arena with a novel stranger; also recorded: spent less time in the box with the novel stranger than controls
chamber entries (BTBR mice [2]): 19±3
marbles buried (BTBR mice [3]): trend toward WIN 55212 treated mice burying fewer than controls
time in the center chamber (129S1/SvImJ mice [4]; WIN 55,212-2 0.1 mg/kg i.p.): increased time spent by 129S mice in the arena center; also recorded: spent more time than acetaminophen (100 mg/kg) or vehicle (saline±10% DMSO) treated mice in the center chamber
dwelling in the center chamber (129S1/SvImJ mice [5]; WIN 55,212-2 0.1 mg/kg i.p.): increased dwelling in the center chamber of the arena
presynaptic 5-HT release in brain (5-HT neurons): inhibit presynaptic 5-HT release in brain

CC(=O)Nc1ccc(O)cc1 [acetaminophen]
dwelling near confined stranger mice (BTBR mice [1]; 100 mg/kg i.p. 50 min prior to testing, adult male BTBR, FIG. 1): increased dwelling near confined stranger mice
dwelling near confined stranger mice (BTBR mice [1]; 400 mg/kg i.p. 50 min prior to testing, adult male BTBR, FIG. 1): increased dwelling near confined stranger mice
time in the chamber with the empty cage (BTBR mice [1]; acetaminophen 100 mg/kg i.p., vs vehicle controls or WIN 55,212-2 0.1 mg/kg): less time in the chamber with the empty cage
time in the chamber with the stranger mouse (BTBR mice [1]; acetaminophen 100 mg/kg i.p., vs vehicle controls or WIN 55,212-2 0.1 mg/kg, FIG. 2a): increased dwelling near stranger mice; also recorded: spent more time in the chamber with the stranger mouse
lowest dose to significantly increase time spent in the chamber with a stranger mouse above saline-injected controls (BTBR mice [1]; adult male BTBR, dose-response 1-400 mg/kg i.p., FIG. 1): 100 mg/kg
time in the chamber with the novel stranger (BTBR mice [2]; FIG. 2c): reduced time spent in the chamber of the arena with a novel stranger; also recorded: spent less time in the box with the novel stranger than controls
chamber entries (BTBR mice [2]): 50±7
time spent sniffing the stranger mouse or investigating the empty cage (129S1/SvImJ mice [4]; FIG. 3b): trend toward acetaminophen-treated 129S mice spending more time investigating strangers that did not reach significance
chamber entries (129S1/SvImJ mice [4]; acetaminophen 100 mg/kg, WIN 55,212-2 0.1 mg/kg i.p.): 21±5
time in the arena chamber with a new stranger mouse (129S1/SvImJ mice [5]): spent significantly more time than controls in the arena chamber with a new stranger mouse
time in the arena chamber with a new stranger mouse (129S1/SvImJ mice [5]; listed as Acetaminophen): increased dwelling near new strangers relative to controls
marble burying (129S1/SvImJ mice [6]): greater than in vehicle-control or WIN 55,212-2 treated 129S mice
marble burying (129S1/SvImJ mice [6]; listed as Acetaminophen): increased marble burying behavior relative to control or WIN 55,212 treatments
marble burying behavior (BTBR and C57BL/6 mice): induced significant marble burying behavior
2-AG levels (BTBR mice [7]): significant affect on 2-AG levels; also recorded: diminution of 2-AG levels
social interactions (mice): promote social interactions in mice
affinity for 5-HT receptors (5-HT receptors): little to no affinity for 5-HT receptors

CCCCC/C=C\C/C=C\C/C=C\C/C=C\CCCC(=O)NCCO [anandamide, N-arachidonoylethanolamine]
social interactions (mice): promote social interactions in mice
